# Assay results as given in patent publication US8748426B2, “Inhibitors of diacylglycerol acyl transferase” (Piramal Enterprises Limited, priority 2009, dated 2014).
# Target: T1, hDGAT1 (Homo sapiens, UniProt O75907)
# T1 sequence (O75907 1-488): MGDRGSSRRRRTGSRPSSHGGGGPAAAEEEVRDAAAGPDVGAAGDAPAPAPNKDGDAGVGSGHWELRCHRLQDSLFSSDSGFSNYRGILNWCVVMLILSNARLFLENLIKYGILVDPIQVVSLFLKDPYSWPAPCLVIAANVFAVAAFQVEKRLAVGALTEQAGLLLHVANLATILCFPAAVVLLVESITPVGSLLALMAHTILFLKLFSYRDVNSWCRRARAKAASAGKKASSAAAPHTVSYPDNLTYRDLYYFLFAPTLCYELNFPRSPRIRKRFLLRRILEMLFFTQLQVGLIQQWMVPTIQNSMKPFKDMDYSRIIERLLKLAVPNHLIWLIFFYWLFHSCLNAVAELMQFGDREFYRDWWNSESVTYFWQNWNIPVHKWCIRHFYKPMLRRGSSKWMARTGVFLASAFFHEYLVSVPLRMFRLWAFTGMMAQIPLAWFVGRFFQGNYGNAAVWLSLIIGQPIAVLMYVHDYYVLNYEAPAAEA
# Assay: In-vitro DGAT1 assay (14C oleoyl CoA, hDGAT1 microsomes from Sf9 cells)
# Settings: read-out: % Inhibition of hDGAT1
row,inhibition at 1 µM [%],SMILES
1,10 to 50,"CC(C)[C@@H](C(=O)O)N1Cc2ccc(-c3ccc(NC(=O)c4ccccc4Cl)cc3)cc2C1=O [Example 132, (S)-2-(6-(4-(2-Chlorobenzamido)phenyl)-1-oxoisoindolin-2-yl)-3-methyl butanoic acid]"
2,10 to 50,"CC(C)[C@@H](C(=O)O)N1Cc2ccc(-c3ccc(NC(=O)c4ccc(Cl)cc4Cl)cc3)cc2C1=O [Example 134, (S)-2-(6-(4-(2,4-Dichlorobenzamido)phenyl)-1-oxoisoindolin-2-yl)-3-methyl butanoic acid]"
3,10 to 50,"CC(C)[C@@H](C(=O)O)N1Cc2ccc(-c3ccc(NC(=O)c4c(F)cccc4F)cc3)cc2C1=O [Example 138, (S)-2-(6-(4-(2,6-Difluorobenzamido)phenyl)-1-oxoisoindolin-2-yl)-3-methyl butanoic acid]"
4,> 50,"CC(C)[C@@H](C(=O)O)N1Cc2ccc(-c3ccc(NC(=O)c4ccc(F)c(F)c4)cc3)cc2C1=O [Example 140, (S)-2-(6-(4-(3,4-Difluorobenzamido)phenyl)-1-oxoisoindolin-2-yl)-3-methyl butanoic acid]"
5,10 to 50,"COc1ccc(C(=O)Nc2ccc(-c3ccc4c(c3)C(=O)N([C@H](C(=O)O)C(C)C)C4)cc2)cc1OC [Example 142, (S)-2-(6-(4-(3,4-Dimethoxybenzamido)phenyl)-1-oxoisoindolin-2-yl)-3-methyl butanoic acid]"
6,> 50,"COc1cc(C(=O)Nc2ccc(-c3ccc4c(c3)C(=O)N([C@H](C(=O)O)C(C)C)C4)cc2)cc(OC)c1OC [Example 144, (S)-3-Methyl-2-(1-oxo-6-(4-(3,4,5-trimethoxybenzamido)phenyl)isoindolin-2-yl)butanoic acid]"
7,> 50,"CCOc1cc(OCC)cc(C(=O)Nc2ccc(-c3ccc4c(c3)C(=O)N([C@H](C(=O)O)C(C)C)C4)cc2)c1 [Example 146, (S)-2-(6-(4-(3,5-Diethoxybenzamido)phenyl)-1-oxoisoindolin-2-yl)-3-methyl butanoic acid]"
8,> 50,"CC(C)[C@@H](C(=O)O)N1Cc2ccc(-c3ccc(NC(=O)c4ccccc4Oc4ccccc4)cc3)cc2C1=O [Example 152, (S)-3-Methyl-2-(1-oxo-6-(4-(2-phenoxybenzamido)phenyl)isoindolin-2-yl)butanoic acid]"
9,10 to 50,"Cc1cc(C)c(C(=O)Nc2ccc(-c3ccc4c(c3)C(=O)N([C@H](C(=O)O)C(C)C)C4)cc2)c(C)c1 [Example 154, (S)-3-Methyl-2-(1-oxo-6-(4-(2,4,6-trimethylbenzamido)phenyl)isoindolin-2-yl)butanoic acid]"
10,> 50,"COc1ccc(C(=O)Nc2ccc(-c3ccc4c(c3)C(=O)N([C@H](C(=O)O)C(C)C)C4)cc2)c(OC)c1 [Example 156, (S)-2-(6-(4-(2,4-Dimethoxybenzamido)phenyl)-1-oxoisoindolin-2-yl)-3-methyl butanoic acid]"
11,> 50,"CC(C)[C@@H](C(=O)O)N1Cc2ccc(-c3ccc(NC(=O)c4ccc(OC(F)(F)F)cc4)cc3)cc2C1=O [Example 158, (S)-3-Methyl-2-(1-oxo-6-(4-(4-(trifluoromethoxy)benzamido)phenyl)isoindolin-2-yl)butanoic acid]"
12,> 50,"COc1ccccc1C(=O)Nc1ccc(-c2ccc3c(c2)C(=O)N([C@H](C(=O)O)C(C)C)C3)cc1 [Example 160, (S)-2-(6-(4-(2-Methoxybenzamido)phenyl)-1-oxoisoindolin-2-yl)-3-methyl butanoic acid]"
13,> 50,"Cc1cc(C(=O)Nc2ccc(-c3ccc4c(c3)C(=O)N([C@H](C(=O)O)C(C)C)C4)cc2)ccc1F [Example 162, (S)-2-(6-(4-(4-Fluoro-3-methylbenzamido)phenyl)-1-oxoisoindolin-2-yl)-3-methyl butanoic acid]"
14,> 50,"CCCCc1ccc(C(=O)Nc2ccc(-c3ccc4c(c3)C(=O)N([C@H](C(=O)O)C(C)C)C4)cc2)cc1 [Example 164, (S)-2-(6-(4-(4-Butylbenzamido)phenyl)-1-oxoisoindolin-2-yl)-3-methylbutanoic acid]"
15,> 50,"Cc1ccc(F)c(C(=O)Nc2ccc(-c3ccc4c(c3)C(=O)N([C@H](C(=O)O)C(C)C)C4)cc2)c1F [Example 166, (S)-2-(6-(4-(2,6-Difluoro-3-methylbenzamido)phenyl)-1-oxoisoindolin-2-yl)-3-methylbutanoic acid]"
16,> 50,"CCc1ccc(C(=O)Nc2ccc(-c3ccc4c(c3)C(=O)N([C@H](C(=O)O)C(C)C)C4)cc2)cc1 [Example 168, (S)-2-(6-(4-(4-Ethylbenzamido)phenyl)-1-oxoisoindolin-2-yl)-3-methylbutanoic acid]"
17,> 50,"CCCCCCCCc1ccc(C(=O)Nc2ccc(-c3ccc4c(c3)C(=O)N([C@H](C(=O)O)C(C)C)C4)cc2)cc1 [Example 172, (S)-3-Methyl-2-(6-(4-(4-octylbenzamido)phenyl)-1-oxoisoindolin-2-yl)butanoic acid]"
18,> 50,"CC(C)[C@@H](C(=O)O)N1Cc2ccc(-c3ccc(NC(=O)c4ccc(C5CCCCC5)cc4)cc3)cc2C1=O [Example 174, (S)-2-(6-(4-(4-Cyclohexylbenzamido)phenyl)-1-oxoisoindolin-2-yl)-3-methyl butanoic acid]"
19,> 50,"CC(C)[C@@H](C(=O)O)N1Cc2ccc(-c3ccc(NC(=O)c4ccc5c(c4)C(C)(C)CCC5(C)C)cc3)cc2C1=O [Example 176, (S)-3-Methyl-2-(1-oxo-6-(4-(5,5,8,8-tetramethyl-5,6,7,8-tetrahydronaphthalene-2-carboxamido)phenyl)isoindolin-2-yl)butanoic acid]"
20,10 to 50,"CC(C)[C@@H](C(=O)O)N1Cc2ccc(-c3ccc(NC(=O)c4cccc5ccccc45)cc3)cc2C1=O [Example 178, (S)-2-(6-(4-(1-Naphthamido)phenyl)-1-oxoisoindolin-2-yl)-3-methylbutanoic acid]"
21,> 50,"COc1ccc(OC)c(C(=O)Nc2ccc(-c3ccc4c(c3)C(=O)N([C@H](C(=O)O)C(C)C)C4)cc2)c1 [Example 180, (S)-2-(6-(4-(3,6-Dimethoxybenzamido)phenyl)-1-oxoisoindolin-2-yl)-3-methyl butanoic acid]"
22,> 50,"CCCCCCc1ccc(C(=O)Nc2ccc(-c3ccc4c(c3)C(=O)N([C@H](C(=O)O)C(C)C)C4)cc2)cc1 [Example 182, (S)-2-(6-(4-(4-Hexylbenzamido)phenyl)-1-oxoisoindolin-2-yl)-3-methylbutanoic acid]"
23,> 50,"CCCCCCCc1ccc(C(=O)Nc2ccc(-c3ccc4c(c3)C(=O)N([C@H](C(=O)O)C(C)C)C4)cc2)cc1 [Example 184, (S)-2-(6-(4-(4-Heptylbenzamido)phenyl)-1-oxoisoindolin-2-yl)-3-methylbutanoic acid]"
24,> 50,"CCCCCCCCCc1ccc(C(=O)Nc2ccc(-c3ccc4c(c3)C(=O)N([C@H](C(=O)O)C(C)C)C4)cc2)cc1 [Example 186, (S)-3-Methyl-2-(6-(4-(4-nonylbenzamido)phenyl)-1-oxoisoindolin-2-yl)butanoic acid]"

row,SMILES,inhibition at 1 µM [%]
1,"CCCCOc1ccc(C(=O)Nc2ccc(-c3ccc4c(c3)C(=O)N([C@H](C(=O)O)C(C)C)C4)cc2)cc1 [Example 136, (S)-2-(6-(4-(4-Butoxybenzamido)phenyl)-1-oxoisoindolin-2-yl)-3-methyl butanoic acid]",> 50
